Data set [1] addresses Dihydroorotate dehydrogenase (quinone), mitochondrial (Homo sapiens, UniProt Q02127). Nature of the data set: Inhibition of human DHODH.
Data set [2] has as its system MOLM-13. The data set can be described thus: Antiproliferative activity against human MOLM-13 cells. It is filed as functional, cell-based.
Data set [3] in a line: Plasma protein binding in human assessed as unbound fraction. It is filed as ADME, cell-free.
The nature of data set [4]: Metabolic stability in human liver microsomes assessed as half life. It is filed as ADME, Microsome.
Data set [5] in a line: Metabolic stability in mouse liver microsomes assessed as half life. Format: ADME, Microsome.
A short description of data set [6]: Oral bioavailability in C57 mouse at 10 mg/kg. To be noted: in vivo. Format: ADME, organism-based.
The nature of data set [7]: Half life in C57 mouse at 10 mg/kg, po or 2 mg/kg, iv. Format: ADME, organism-based. To be noted: in vivo.
Data set [8] in a line: Clearance in C57 mouse at 10 mg/kg, po or 2 mg/kg, iv. Format: ADME, organism-based. To be noted: in vivo.
Data set [9] can be described thus: Volume of distribution at steady state in C57 mouse at 10 mg/kg, po or 2 mg/kg, iv. Format: ADME, organism-based. To be noted: in vivo, read-out: Vdss.
A short description of data set [10]: Plasma protein binding in mouse assessed as unbound fraction. It is filed as ADME, cell-free.

pIC50: −log10 of the molar value.

Dihydroorotate dehydrogenase (quinone), mitochondrial, sequence (Q02127 whole entry): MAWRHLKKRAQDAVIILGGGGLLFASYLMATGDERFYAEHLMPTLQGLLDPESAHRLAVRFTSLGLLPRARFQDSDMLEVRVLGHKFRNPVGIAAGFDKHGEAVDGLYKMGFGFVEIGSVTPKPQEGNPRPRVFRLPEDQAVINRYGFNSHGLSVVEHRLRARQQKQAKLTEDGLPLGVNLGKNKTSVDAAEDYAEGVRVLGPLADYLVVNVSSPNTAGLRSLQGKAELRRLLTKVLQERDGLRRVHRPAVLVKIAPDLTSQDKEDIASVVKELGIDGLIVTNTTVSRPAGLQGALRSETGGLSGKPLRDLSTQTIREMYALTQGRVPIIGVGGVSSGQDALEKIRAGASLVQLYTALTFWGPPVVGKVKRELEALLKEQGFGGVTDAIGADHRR

In the case of `Cc1c(-c2ccc(-c3ccccc3F)cc2)nc2ccc(F)cc2c1C(=O)NC#N`, the negative-log IC50 (pIC50) in [1] was 6.94; in [2] (Homo sapiens, MOLM-13), under 5.52.
Turning to `CONC(=O)c1c(C)c(-c2ccc(-c3ccccc3F)cc2)nc2ccc(F)cc12`, the values for the Fu in data set [3] and in data set [10] were 0.55% and 0.77%, respectively. In addition, the pIC50 in [1] was 9.92; in [2] (Homo sapiens, MOLM-13), 8.05. For the same compound, the half-life in [4] is over 3 h; in data set [5], 0.95 h; in data set [7], 2.35 h. Further, in data set [6], the bioavailability amounted to 108%. The clearance in data set [8] turned out to be 5.09 mL/min/kg. The Vd in [9] amounted to 1.15 L/kg.
With `Cc1c(-c2ccc(-c3ccccc3F)cc2)nc2ccc(F)cc2c1C(F)F`, the negative logarithm of the IC50 (pIC50) was 6.80 in data set [1] and under 5.52 in data set [2] (Homo sapiens, MOLM-13).
Turning to `COC(=O)NC(=O)c1c(C)c(-c2ccc(-c3ccccc3F)cc2)nc2ccc(F)cc12`, the negative-log IC50 (pIC50) in data set [1] is 5.90; in data set [2] (Homo sapiens, MOLM-13), 6.39.
Taken in the same sequence, the figures for `Cc1c(-c2ccc(-c3ccccc3F)cc2)nc2ccc(F)cc2c1C(=O)N(C)O` were 8.11 and 5.29.
Take `Cc1c(-c2ccc(-c3ccccc3F)cc2)nc2ccc(F)cc2c1C(=O)NO`: the pIC50 in [1] was 8.85; in data set [2] (Homo sapiens, MOLM-13) it was 7.64. Further, the values for the half-life in data set [4] and in [5] were over 3 h and 0.6 h, respectively.
For `Cc1c(-c2ccc(-c3ccccc3F)cc2)nc2ccc(F)cc2c1C(N)=O` the same measures were 7.33, 6.89, 2.25 h and 1.08 h.
For the compound `Cc1c(-c2ccc(-c3ccccc3F)cc2)nc2ccc(F)cc2c1C(=O)NS(C)(=O)=O`, the negative-log IC50 (pIC50) in data set [1] was 7.49; in [2] (Homo sapiens, MOLM-13), 6.52.
For `Cc1c(-c2ccc(-c3ccccc3F)cc2)nc2ccc(F)cc2c1-c1noc(=O)[nH]1` the same measures were 5.81 and under 5.52.
For `Cc1c(-c2ccc(-c3ccccc3F)cc2)nc2ccc(F)cc2c1C(=O)C(F)(F)F`, the pIC50 in data set [1] is 7.13; in [2] (Homo sapiens, MOLM-13), under 5.52.
For `Cc1c(-c2ccc(-c3ccccc3F)cc2)nc2ccc(F)cc2c1-c1nnn[nH]1` the same measures were 6.65 and under 5.52.
For `Cc1c(-c2ccc(-c3ccccc3F)cc2)nc2ccc(F)cc2c1C(O)C(F)(F)F` (stereo not given) the same measures were 6.09 and 6.19.
Regarding `CCONC(=O)c1c(C)c(-c2ccc(-c3ccccc3F)cc2)nc2ccc(F)cc12`, the negative-log IC50 (pIC50) in data set [1] is 8.38; in data set [2] (Homo sapiens, MOLM-13), 7.48. Also, the half-life is over 3 h in [4] and 0.3 h in [5].
On to `Cc1c(-c2ccc(-c3ccccc3F)cc2)nc2ccc(F)cc2c1CO`, for which the negative-log IC50 (pIC50) in data set [1] was 6.78; in data set [2] (Homo sapiens, MOLM-13) it was 6.15.
Consider `Cc1c(-c2ccc(-c3ccccc3F)cc2)nc2ccc(F)cc2c1C(=O)O` [BREQUINAR], for which the Fu in data set [3] is given as 0.39%; in data set [10], 0.73%. Also, the negative-log IC50 (pIC50) in data set [2] (molm-13) is 7.22. Moreover, the half-life in data set [4] and in data set [5] was over 3 h throughout. In addition, the bioavailability in data set [6] amounted to 72%. In addition, the clearance in data set [8] came to 0.2 mL/min/kg. Further, the Vd in data set [9] was 0.3 L/kg.
